Tested on: Casein-Starch-Induced Hypercholesterolemia in Rabbits
Experiment: Casein-starch-induced hypercholesterolemia in rabbits (serum lipid profile)
Format: in vivo
Set-up: key to LDL-C level: serum LDL-C in mg/dL, mean±S.E.M
Conditions: for serum total cholesterol level / LDL-C level: mean±S.E.M.; for LDL-C level: in mg/dL (unit assumed)
Experimental: Casein-Starch-Induced Hypercholesterolemia in Rabbits
The observed unexpected synergistic lipid lowering effect of combination of Extract-A and atorvastatin is evidenced by the test conducted in rabbits. Rabbits of either sex were procured from Central Animal House facility; Panacea Biotec Ltd., India. Animals weighing 1.5-2.0 Kg at the time of testing were used. All animals were dosed sequentially by the oral route with Extract-A and/or atorvastatin suspended in 0.5% of carboxymethyl cellulose (CMC). A dosing volume of 2 ml/kg was used for each sequential suspension.
The fasting serum lipid profile (TC, TGs, LDL-C, HDL-C) was estimated before initiation of the experiment. […] Hypercholesterolemia was induced by feeding rabbits with wheat casein-starch diet (g/kg) containing wheat flour 333, cellulose 300, casein 270, water 20, maize oil 10, and mineral mixture (Kroon et al., 1982) for 60 days. Feed consumption was restricted to 100 g/day per animal. The cholesterol level was estimated every 15 days. After 60 days animals with total cholesterol level >150 mg/dl were randomized to treatment (n=6/group). Thereafter, various doses of Extract-A and/or atorvastatin were administered for another 60 days during which animals were fed with casein-starch diet. Blood samples were collected from fasted rabbits and analyzed for any alteration in serum lipid profile after 60 days of test compound(s) administration.
All the data are expressed as mean±S.E.M. (Standard Error of Mean). Student t-test was-used to compare the lipid parameters between animals fed with standard and hypercholesterolemic diet. The difference between various drug treated groups was analyzed by ANOVA followed by Dunnett's test. A value of P<0.05 was considered as statistically significant.

[1] = atorvastatin 2.5 mg/kg p.o., day 0, pre-dose
[2] = atorvastatin 2.5 mg/kg p.o., day 15, pre-dose
[3] = atorvastatin 2.5 mg/kg p.o., day 30, pre-dose
[4] = atorvastatin 2.5 mg/kg p.o., day 60, start of dosing
[5] = atorvastatin 2.5 mg/kg p.o., day 75 (dosing from day 60)
[6] = atorvastatin 2.5 mg/kg p.o., day 90 (dosing from day 60)
[7] = atorvastatin 2.5 mg/kg p.o., day 105 (dosing from day 60)
[8] = atorvastatin 2.5 mg/kg p.o., day 120 (dosing from day 60)
[9] = atorvastatin 5 mg/kg p.o., day 0, pre-dose
[10] = atorvastatin 5 mg/kg p.o., day 15, pre-dose
[11] = atorvastatin 5 mg/kg p.o., day 30, pre-dose
[12] = atorvastatin 5 mg/kg p.o., day 60, start of dosing
[13] = atorvastatin 5 mg/kg p.o., day 75 (dosing from day 60)
[14] = atorvastatin 5 mg/kg p.o., day 90 (dosing from day 60)
[15] = atorvastatin 5 mg/kg p.o., day 105 (dosing from day 60)
[16] = atorvastatin 5 mg/kg p.o., day 120 (dosing from day 60)
[17] = single agents: Extract-A 100 and 200 mg/kg p.o., atorvastatin 2.5 and 5 mg/kg p.o.

SMILES: CC(C)c1c(C(=O)Nc2ccccc2)c(-c2ccccc2)c(-c2ccc(F)cc2)n1CC[C@@H](O)C[C@@H](O)CC(=O)O [At, atorvastatin]
- serum total cholesterol level [1]: 56.83 ± 4.84 mg/dL
- LDL-C level [1]: 21.4 ± 8.04
- serum total cholesterol level [2]: 96.00 ± 2.08 mg/dL
- LDL-C level [2]: 61.03 ± 1.87
- serum total cholesterol level [3]: 144.83 ± 6.6 mg/dL
- LDL-C level [3]: 106.6 ± 5.85
- serum total cholesterol level [4]: 204.66 ± 6.58 mg/dL
- LDL-C level [4]: 166.07 ± 4.97
- serum total cholesterol level [5]: 202.5 ± 15.15 mg/dL
- LDL-C level [5]: 165.53 ± 14.81
- serum total cholesterol level [6]: 205.83 ± 13.31 mg/dL
- LDL-C level [6]: 166.47 ± 13.66
- serum total cholesterol level [7]: 201.33 ± 11.49 mg/dL
- LDL-C level [7]: 159.3 ± 12.53
- serum total cholesterol level [8]: 201.16 ± 10.4 mg/dL
- LDL-C level [8]: 158.00 ± 12.22
- serum total cholesterol level [9]: 68.50 ± 5.99 mg/dL
- LDL-C level [9]: 30.33 ± 6.44
- serum total cholesterol level [10]: 101.16 ± 1.88 mg/dL
- LDL-C level [10]: 61.83 ± 1.77
- serum total cholesterol level [11]: 142.16 ± 10.37 mg/dL
- LDL-C level [11]: 104.17 ± 11.76
- serum total cholesterol level [12]: 226.67 ± 9.74 mg/dL
- LDL-C level [12]: 188.67 ± 10.00
- serum total cholesterol level [13]: 213.16 ± 5.69 mg/dL
- LDL-C level [13]: 175.07 ± 5.06
- serum total cholesterol level [14]: 201.83 ± 5.81 mg/dL
- LDL-C level [14]: 161.3 ± 6.04
- serum total cholesterol level [15]: 198.17 ± 6.65 mg/dL
- LDL-C level [15]: 155.17 ± 6.87
- serum total cholesterol level [16]: 195.50 ± 5.31 mg/dL
- LDL-C level [16]: 149.1 ± 4.72
- LDL-C in comparison to hypercholesterolemic control rabbits [17]: reversed
- TC in comparison to hypercholesterolemic control rabbits [17]: reversed
